# According to patent US20110224133A1 (University of Southern California, priority 2008, published 2011):
# “Also recorded” adds a separate entry of the source. Ends that are not written are not given here. Peptide text beside a SMILES is read from it. * marks the point of attachment. Cbz = O=C(OCc1ccccc1)*; CH2F = FC*
# Legend:
# [1] = biological target: T1, Atg3 (Homo sapiens, UniProt Q9NT62); assay: Co-immunoprecipitation and GST pulldown with Atg3 in HEK293T cells; assay type: binding; settings: HEK293T cells, 48 hr post-transfection
# T1 construct: expressed in transfected cells; host or cells: HEK293T
# T1 sequence (Q9NT62 whole entry): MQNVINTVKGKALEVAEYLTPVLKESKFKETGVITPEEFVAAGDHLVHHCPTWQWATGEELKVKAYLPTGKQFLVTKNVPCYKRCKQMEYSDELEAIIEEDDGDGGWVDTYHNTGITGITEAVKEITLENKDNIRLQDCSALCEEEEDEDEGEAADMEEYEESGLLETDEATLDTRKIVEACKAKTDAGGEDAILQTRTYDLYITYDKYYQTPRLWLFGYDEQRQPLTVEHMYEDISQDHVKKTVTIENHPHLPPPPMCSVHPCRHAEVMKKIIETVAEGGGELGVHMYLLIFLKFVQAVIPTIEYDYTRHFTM
# Source text: (§1) For panel A, at 48 hr post-transfection with Flag-vFLIP and/or GFP-Atg3 (left) or Flag-vFLIP and/or GST-Atg3 (middle), HEK293T cells were used for immunoprecipitation with αFlag, αGFP, or GST pulldown, followed by immunoblotting with the indicated antibodies. For panel A (right), HEK293T cells transfected with FIag-vFLIP were used for immunoprecipitation with mouse IgG or αFlag, followed by immunoblotting with αAtg3. Panel B (top) depicts a schematic diagram of human Atg3. N,N-terminus; FR, flexible region; C, C-terminus. […] Panel C (top) depicts a schematic diagram of KSHV vFLIP. […] For panel F, NIH3T3-Vector and NIH3T3-vFLIP cells were treated with 2 nM rapamycin for 12 hr and used for IP with αAtg3, followed by immunoblotting with αLC3. In panels A-F, whole cell lysates (WCLs) were used for immunoblotting with the indicated antibodies to show expression.
# (§2) WCLs were used for immunoblotting with αFlag or αGST. […] WCLs were used for immunoblotting with αFlag or αGST.
# (§3) The ability of FLIP to bind to Atg3 was evaluated by co-immunoprecipitation assay. HEK293T cells were transfected with Flag-vFLIP and/or GFP-Atg3 or Flag-vFLIP and/or GST-Atg3, and at 48 hr post-transfection, cells were harvested and lysed in an NP40 buffer supplemented with complete protease inhibitor cocktail (Roche). After pre-clearing with protein A/G agarose beads for 1 hr at 4° C., whole-cell lysates were used for immunoprecipitation with αFlag, αGFP, or GST. Generally, 1-4 μg of the antibody was added to 1 ml of the cell lysate and incubated at 4° C. for 8 to 12 hr. The immunoprecipitates were then washed extensively with a lysis buffer and eluted by boiling them with an SDS loading buffer for 5 min. Following immunoprecipitation, samples were treated to immunoblot using αAtg3 (1:500) (Novus).
# (§4) The overall structure of yeast Atg3 has a unique hammer-like shape with the N-terminal and C-terminal regions discretely responsible for Atg7 and Atg8 (equivalent to mammalian LC3) binding, respectively. (Yamada et al. (2007) J. Biol. Chem. 282:8036-8043). Based on the structure of yeast Atg3, human Atg3 deletion mutants fused with a GST mammalian expression vector were constructed: GST-Atg31-93, GST-Atg3193-268, GST-Atg3268-315, and GST-Atg3193-315.
# [2] = test system: LC3-II; assay: Immunoblotting with αLC3 of peptide-treated BCBL1 cells; settings: 30 μM each, 12 hr
# Description: For panel E, TREX-BCBL-Vector and TREX-BCBL-vFLIP cells were treated with the K-α and the K-α4 (30 μM each) peptide for 12 hr, followed by immunoblotting with αLC3 and αactin.
# The K-α2 and K-α4 peptides contained KSHV vFLIP aa20-29 and aa128-139 regions, respectively, as retro-inverso versions to circumvent the proteolytic degradation (FIG. 10 and FIG. 11A). […] Peptide-treated TREX-BCBL-Vector and TREX-BCBL-vFLIP cells were subjected to immunoblotting with αLC3 and αactin.
# [3] = test system: mTor kinase activity; assay: Immunoblot of p70S6K and S6 phosphorylation in BCBL1 cells; assay type: cell-based, human; settings: 12 hr, 2 μM rapamycin or 30 μM peptide
# Description: WCLs were used for immunoblotting with αp70S6K, αphospho-specific p70S6K, αphospho-specific S6, or αactin. […] WCLs were used for immunoblotting with αFlag or αGST.
# Levels of phosphorylation of p70S6K and ribosomal protein S6 in BCBL1 cells were evaluated by immunoblotting with α-p70S6K, αphospho-specific p70S6K, αphospho-specific S6, or αactin.
# [4] = test system: TREX-BCBL-Vector cells; assay: Cell death (BC Z2 CS analyzer) in peptide-treated TREX-BCBL cells; settings: identical conditions, 30 or 50 μM peptide
# Description: Subsequently, autophagy was quantified as means (±SD) of the combined results from three independent experiments. 2 μM rapamycin treatment was included as a control. For panels B (right), TREX-BCBL-Vector and TREX-BCBL-vFLIP cells were treated with Doxycycline for 24 hr, followed by incubation with 0, 30, or 50 μM of TAT only, the K-α2, or the K-α4 peptide (top), or TAT only, the C-α2, or the C-α4 peptide (bottom) for an additional 12 hr and a BC Z2 CS analyzer used to determine cell death (as a percentage). […] For panel G, various human lymphoma cells were treated with 0, 30, or 50 μM of the K-α2 peptide (left) or the K-α4 peptide (right) for 12 hr and cell death (as a percentage) was determined using a BC Z2 CS Analyzer. For panel H, KSHV-infected BCBL1 cells were incubated with various combinations of rapamycin (25 nM), the K-α2 peptide (20 μM), and the K-α4 peptide (20 μM). A BC Z2 CS Analyzer was used to determine cell numbers (left) and cell death at 6 days (right).
# Cells treated with 2 μM rapamycin treatment were included as controls. For panel C, KSHV-infected BCBL1 cells were treated with TAT only, K-α2, K-α2m, K-α4, or K-α4m (30 or 50 μM) for 24 hr. A BC Z2 CS Analyzer was used to determine cell death (as a percentage).
# [5] = test system: TREX-BCBL-Vector cells; assay: GFP-LC3 puncta autophagy assay in peptide-treated TREX-BCBL cells; settings: 30 or 50 μM peptide, 12 hr, 2 μM rapamycin as comparison
# [6] = test system: KSHV-infected BCBL1 cells; assay: Rapamycin-induced growth suppression and death of BCBL1 cells (cell counts, scanning EM); assay type: cell-based, human; settings: 6 days, over 100 dead cells examined
# Description: The effect of vFLIP on autophagy was tested in a KSHV-infected BCBL1 cell line.
# [7] = test system: Beclin1; assay: Beclin1 siRNA knockdown in BCBL1 cells; assay type: cell-based, human
# Source text: For panel B, BCBL1 cells were transfected with control siRNA or Beclin1 siRNA and treated with or without rapamycin for 5 days.
# [8] = test system: BCBL1 cells; settings: 50 μM zVAD
# Description: For panels B-C, TREX-BCBL-Vector and TREX-BCBL-vFLIP cells were mock-treated or treated with 50 μM zVAD (B) or 50 nM rapamycin (C) for indicated amounts of time (days). A BC Z2 CS Analyzer was used to determine the cell numbers (left) and cell death levels (as a percentage) at day 6 (right).
# Trypan blue staining and a Beckman Coulter Z2 Particle Count and Size analyzer were used to determine cell death (as a percentage) at day 5.
# [9] = biological target: T2, GST-Atg3 (human Atg3, full length) (human, UniProt Q9NT62 1-314); assay: GST pulldown from HEK293T cells, immunoblot αFlag
# T2 construct: also called GST-tagged hATG3; full-length Atg3; not shown: N-terminal GST tag
# T2 sequence (Q9NT62 whole entry): as above
# [10] = biological target: T3, GST-Atg3 193-315 (C-terminal region) (human, UniProt Q9NT62 193-314); assay: GST pulldown with GST-Atg3, Nt and Ct, immunoblot αFlag
# T3 construct: range 193-315; also called GST-Atg3 C-terminal region (Ct); not shown: N-terminal GST tag
# T3 sequence (Q9NT62 193-314 limits assumed): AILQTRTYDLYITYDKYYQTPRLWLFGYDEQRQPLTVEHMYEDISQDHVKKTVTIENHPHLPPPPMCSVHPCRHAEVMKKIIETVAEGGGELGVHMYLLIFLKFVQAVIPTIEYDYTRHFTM
# [11] = test system: NIH3T3 cells; assay: GFP-LC3 autophagy assay in NIH3T3 cells expressing FLIP; assay type: cell-based, murine; settings: ectopic expression in NIH3T3 cells; Hank's solution 4 hr or 2 μM rapamycin 3 hr
# [12] = test system: LC3-II; assay: Anti-LC3 immunoblotting of starved NIH3T3 cells expressing FLIP; assay type: cell-based, murine; settings: starvation, Hank's solution 4 hr
# Description: The arrows indicate autophagosomes.
# During autophagy, an LC3 precursor (LC3-I) undergoes cleavage and lipidation to yield its processed form (LC3-II) (Mizushima et al. (2008) Nature 451:1069-1075). Immunoblotting was performed with an antibody against LC3 to further measure autophagic activity. […] Polypeptides were resolved by SDS-polyacrylamide gel electrophoresis (PAGE) and transferred to a PVDF membrane (Bio-Rad). […] The proteins were visualized by a chemiluminescence reagent (Pierce) and detected by a Fuji Phosphor Imager. […] Finally, the ability of FLIP to block autophagy in multiple cell types was evaluated.
# [13] = test system: Atg3; assay: Co-immunoprecipitation and GST pulldown with Atg3 in HEK293T cells; assay type: binding, human; settings: GST-Atg3 deletion mutants, GST pulldown
# Source text: as §1, §2, §3, §4
molecule,measurement,setting,value
QTFLHWVYCMEN [DED2 α4 helix],Atg3 binding,[1],individually sufficient for Atg3 binding
"RRRQRRKKRGY-G-NEMCYVWHLFTQ (RRRQRRKKRGYGNEMCYVWHLFTQ; not fully specified (some residues); also: retro-inverso D-amino acids) [K-α4, KSHV vFLIP aa128-139 as retro-inverso version fused with HIV-1 TAT transduction domain]",LC3-II level,[2],high amount of LC3-II
same,phosphorylation of p70S6K,[3],marginal reduction
same,phosphorylation of ribosomal protein S6,[3],remained unaffected
"RRRQRRKKRGY-G (RRRQRRKKRGYG) [HIV-1 TAT, reference compound]",cell death (in words),[4],no increase in autophagy nor cell death
same,autophagy induction (GFP-LC3 puncta),[5],no increase in autophagy
CO[C@H]1C[C@@H]2CC[C@@H](C)[C@@](O)(O2)C(=O)C(=O)N2CCCC[C@H]2C(=O)O[C@H]([C@H](C)C[C@@H]2CC[C@@H](O)[C@H](OC)C2)CC(=O)[C@H](C)/C=C(\C)[C@@H](O)[C@@H](OC)C(=O)[C@H](C)C[C@H](C)/C=C/C=C/C=C/1C [rapamycin],dead cells with characteristics of autophagic death (EM),[6],approximately 60%
5′AAGAUCCUGGACCGUGUCACC3′ [Beclin1 siRNA],endogenous Beclin1 expression,[7],significantly reduced endogenous Beclin1 expression
same,rapamycin-induced autophagic death,"[7]; rapamycin, day 5",attenuated rapamycin-induced autophagic death
"EVVLFLLNVF (also: GST fusion; UniProt F5HEZ4 20-29, looked up, fragment) [DED1 α2 helix, α2 region of KSHV vFLIP amino acids 20-29; tested as mammalian GST fusion]",Atg3 binding,[1],individually sufficient for Atg3 binding
"COC(=O)CC(NC(=O)C(C)NC(=O)C(NC(=O)OCc1ccccc1)C(C)C)C(=O)CF (stereo not drawn) [zVAD, benzyloxycarbonylvalyl-alanyl-aspartic acid (O-methyl)-fluoro-methylketone] (Cbz-Val-Ala-Asp(OMe)-CH2F; configuration not given here)",growth suppression and death,[8],effectively induced growth suppression and death of BCBL1 cells
RRRQRRKKRGY-G-FVNLAAAVVE [K-α2m],cell death (in words),[4],no increase in autophagy nor cell death
same,autophagy induction (GFP-LC3 puncta),[5],no increase in autophagy
"RRRQRRKKRGY-G-FVNLLFLVVE (RRRQRRKKRGYGFVNLLFLVVE; not fully specified (some residues); also: retro-inverso D-amino acids) [K-α2, KSHV vFLIP aa20-29 as retro-inverso version fused with HIV-1 TAT transduction domain]",LC3-II level,[2],high amount of LC3-II
same,phosphorylation of p70S6K,[3],marginal reduction
same,phosphorylation of ribosomal protein S6,[3],remained unaffected
RRRQRRKKRGY-G-NEMCAAAHAATQ [K-α4m],cell death (in words),[4],no increase in autophagy nor cell death
same,autophagy induction (GFP-LC3 puncta),[5],no increase in autophagy
"Flag-KSHV vFLIP DED1 (other, also called DED1 of KSHV vFLIP) MATYEVLCEVARKLGTDDREVVLFLLNVFIPQPTLAQLIGALRALKEEGRLTFPLLAECLFRAGRRDLLRDLLHLDPRFLERHLAGTMSY",binding result,[9],binds
"Flag-KSHV vFLIP DED2 (other, also called DED2 of KSHV vFLIP) FSPYQLTVLHVDGELCARDIRSLIFLSKDTIGSRSTPQTFLHWVYCMENLDLLGPTDVDALMSMLRSLSRVDLQRQVQTLMGLHLSGPSHSQHYRHTP",binding result,[9],binds
Flag-HVS vFLIP (other) MDLKTTVLHITDSFTEEEMYCLLFLINGCIPRNCNAVKISDLIIETLSKSTQWDICLTQCLYVLRKIELLLNLFQVTKEDVKQSFFTQLQLETHVLTLVNVNNNLTAKDEKRLCFILDQFFPRNVVASSVILCVFSNMLCEMPVLECLCQLKKCLKQIGRSDLAKTV,binding result,[10],binds
same,binding result,[9],binds
"HVS vFLIP: viral FLIP of Herpesvirus saimiri (protein, Saimiriine herpesvirus 2, viral FLIP of Herpesvirus saimiri) MDLKTTVLHITDSFTEEEMYCLLFLINGCIPRNCNAVKISDLIIETLSKSTQWDICLTQCLYVLRKIELLLNLFQVTKEDVKQSFFTQLQLETHVLTLVNVNNNLTAKDEKRLCFILDQFFPRNVVASSVILCVFSNMLCEMPVLECLCQLKKCLKQIGRSDLAKTV",suppression of starvation- and rapamycin-induced autophagy (GFP-LC3 puncta),[11],strongly suppressed starvation- and rapamycin-induced autophagy; also recorded: had anti-autophagic activity
same,processed LC3-II,[12],little or no processed LC3-II
same,Atg3 regions bound (Atg3 deletion mutants),[13],Atg3 binding patterns similar to KSHV vFLIP
same,Atg3 binding,[1],interacted with Atg3 as efficiently as KSHV-vFLIP
